The source made the active and inactive calls.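 The calls were made as follows: active = fitted curve reaches 40% activation below the top valid tested dose, in every test run; inconclusive = test runs disagree on the call; inactive = the rest, including effects opposite to the expected direction.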

One assay is described as follows: endothelial E-selectin upregulation by compounds – imaging, HUVEC, cherry-picked samples, dose response (AID 977605).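 Also: signal is the share of imaged cells scored positive for E-selectin.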 Conditions: HUVEC E-selectin immunostaining, at 18 µM (top of the series), percent of TNF-alpha response over vehicle.
For the molecule `COc1ccc(NC(=O)N(C)C[C@H]2Oc3ccc(NC(=O)CCCCCC(=O)Nc4ccccc4N)cc3CC(=O)N([C@@H](C)CO)C[C@H]2C)cc1`, the activation was 0.745% (inactive).

The same assay, now with this note: HUVEC E-selectin immunostaining, at 19.5 µM (top of the series).
Take `CN1CCN(c2cn[nH]c(=O)c2Cl)CC1`: the activation is -0.235% (inactive). With `NC(C(=O)O)c1cc(=O)[nH]o1` (centres undefined), the activation was 0.044% (inactive).

Staying with this assay, now noted: HUVEC E-selectin immunostaining, at 19.5 µM (top of the series), percent of TNF-alpha response over vehicle.
Consider `COC(=O)c1noc(C)c1-c1ccnn1C(=O)c1ccc(C)cc1`, for which the activation is 0.122% (inactive). For the molecule `Cc1noc(C)c1S(=O)(=O)Nc1ccc2c(c1)CC(=O)N([C@H](C)CO)C[C@@H](C)[C@H](CN(C)C(=O)Nc1cccc3ccccc13)O2`, the activation was -0.155% (inactive).

`C[C@H](CO)N1C[C@H](C)[C@@H](CN(C)S(=O)(=O)c2cn(C)cn2)Oc2ccc(N(C)C)cc2C1=O`: the activation was 0.037% (inactive).

On to `C[C@@H]1CN([C@H](C)CO)C(=O)c2cc(NC(=O)CCC(F)(F)F)ccc2O[C@@H]1CN(C)Cc1ccc(C(F)(F)F)cc1`, for which the activation was 0.048% (inactive).

On to `C[C@@H]1CN([C@@H](C)CO)C(=O)c2cc(NC(=O)Nc3ccc4c(c3)OCO4)ccc2O[C@H]1CN(C)C`, for which the activation is -0.091% (inactive).

Take `COc1ccc(NC(=O)Nc2cccc3c2O[C@@H](CN(C)C(=O)NC2CCCCC2)[C@@H](C)CN([C@H](C)CO)C3=O)cc1`: the activation was 0.334% (inactive).

In the case of `O=S(=O)(Nc1cccc(Oc2cnccn2)c1)c1ccc(F)cc1`, the activation is 0.221% (inactive).

Regarding `Cc1cc(C)cc(NC(=O)Nc2ccc(-n3ccc(C(F)(F)F)n3)cc2)c1`, the activation was 0.075% (inactive). Still for that read-out and setting: the result for `C[C@H]1CN([C@@H](C)CO)C(=O)c2cc(N(C)C)ccc2O[C@H]1CN(C)Cc1ccc(C(=O)O)cc1` reads 0.082% (inactive); that for `C[C@H](CO)N1C[C@H](C)[C@H](CN(C)C(=O)Nc2ccccc2)Oc2ccc(NS(C)(=O)=O)cc2C1=O`, -0.163% (inactive). The same measure, in the same setting: next, `C[C@@H]1CN([C@@H](C)CO)C(=O)Cc2cc(NS(=O)(=O)c3cccs3)ccc2O[C@H]1CN(C)C(=O)Nc1ccc(F)cc1`: -0.169% (inactive); `Cc1noc(C)c1S(=O)(=O)N(C)C[C@H]1Oc2ccc(NC(=O)Nc3ccc(F)cc3)cc2CC(=O)N([C@H](C)CO)C[C@@H]1C`: -0.001% (inactive). Still for that read-out and setting: next, `Cc1nn(CCS(=O)(=O)c2ccc(Cl)cc2)c(C)c1Br`: 0.08% (inactive). For `CCNC(=O)C[C@@H]1CC[C@H]2[C@@H](COc3ccc(NC(=O)Nc4ccc(F)cc4)cc3C(=O)N2C)O1`, the activation is -0.137% (inactive). With `CCOC(=O)C1(Cc2cccc(OC)c2)CCN(Cc2ccccc2)CC1`, the activation is 0.067% (inactive). On the same count and under the same terms, the result for `Cc1noc(C)c1S(=O)(=O)N(C)C[C@H]1Oc2ccc(NS(C)(=O)=O)cc2CC(=O)N([C@@H](C)CO)C[C@H]1C` reads 0.259% (inactive); that for `CC(C)NC(=O)N(C)C[C@@H]1Oc2ccc(NS(=O)(=O)c3cccs3)cc2CC(=O)N([C@@H](C)CO)C[C@H]1C`, 0.096% (inactive).

Turning to `COc1ccc(NS(=O)(=O)c2cccc(Cl)c2Cl)cc1S(=O)(=O)N1CCCCC1`, the activation was -0.061% (inactive). Turning to `O=C(c1cncc(Br)c1)N1CCN(S(=O)(=O)c2ccccc2C(F)(F)F)CC1`, the activation is -0.01% (inactive). As for `C[C@@H]1CN([C@@H](C)CO)C(=O)Cc2cc(NC(=O)Cc3ccccc3)ccc2O[C@H]1CN(C)C(=O)Nc1cccc2ccccc12`, the activation was -0.158% (inactive). Turning to `C[C@H]1CN([C@@H](C)CO)C(=O)c2cc(NC(=O)CCN3CCOCC3)ccc2O[C@@H]1CN(C)S(=O)(=O)c1ccc(Cl)cc1`, the activation is -0.142% (inactive). The same measure, in the same setting: next, `CC(C)(CN1CCCC1)NS(=O)(=O)c1ccc(Cl)cc1`: -0.279% (inactive); `Cc1noc(C)c1NC(=O)N(C)C[C@@H]1Oc2ccc(NC(=O)Cn3cnnn3)cc2C(=O)N([C@@H](C)CO)C[C@@H]1C`: -0.143% (inactive). In the case of `COc1ccc(S(=O)(=O)Nc2ccc3c(c2)C(=O)N([C@H](C)CO)C[C@@H](C)[C@@H](CN(C)C(=O)Nc2cccc4ccccc24)O3)cc1`, the activation is 1.7% (inactive).

As to `COc1ccc(-c2nnc3n2CCCCC3)cc1OC`, the activation is 0.027% (inactive).

For `CCN(CC)C(=O)c1cn(-c2cccc(OC)c2)c(=O)c2ccccc12`, the activation is -0.108% (inactive). Take `COc1ccc(CN(C)C[C@H]2Oc3c(NC(=O)c4cnccn4)cccc3C(=O)N([C@H](C)CO)C[C@@H]2C)cc1`: the activation was 0.248% (inactive). As for `CCN(Cc1ccccc1)S(=O)(=O)c1ccc(OC)c2ncccc12`, the activation is -0.178% (inactive).

For the molecule `C[C@@H]1CN([C@H](C)CO)C(=O)Cc2cc(NS(=O)(=O)c3cccs3)ccc2O[C@@H]1CN(C)Cc1ccc(C(=O)Nc2ccccc2N)cc1`, the activation is 1.45% (inactive). Regarding `C[C@@H]1CN([C@H](C)CO)C(=O)c2cccc(NC(=O)c3ccc(-c4nccs4)cc3)c2O[C@H]1CN(C)Cc1ccc(Oc2ccccc2)cc1`, the activation was 9.5% (inactive). With `Cc1ccc(S(=O)(=O)N(C)C[C@@H]2Oc3ccc(N(C)C)cc3C(=O)N([C@H](C)CO)C[C@H]2C)cc1`, the activation is 0.022% (inactive).

For the molecule `C[C@H]1CN([C@@H](C)CO)C(=O)Cc2cc(NC(=O)Nc3ccc(F)cc3)ccc2O[C@H]1CN(C)C(=O)Nc1ccc(C(F)(F)F)cc1`, the activation was 0.219% (inactive). Still for that read-out and setting: the result for `C[C@@H]1CN([C@H](C)CO)C(=O)Cc2cc(NC(=O)CCN3CCOCC3)ccc2O[C@H]1CN(C)S(C)(=O)=O` reads 0.606% (inactive); that for `Cc1noc(C)c1NC(=O)N(C)C[C@H]1Oc2ccc(NC(=O)c3ccncc3)cc2C(=O)N([C@H](C)CO)C[C@H]1C`, 0.014% (inactive); that for `CNC[C@H]1Oc2ccc(N(C)C)cc2C(=O)N([C@@H](C)CO)C[C@H]1C`, 0.27% (inactive). Same read-out and setting: the result for `C[C@H](CO)N1C[C@H](C)[C@@H](CN(C)C(=O)NC2CCCCC2)Oc2c(NC(=O)Nc3ccc(F)cc3)cccc2C1=O` reads 0.219% (inactive). The same measure, in the same setting: next, `Cc1ccc(C(=O)NNC(=O)CSc2nnc(CNc3ccc(F)cc3)n2C)cc1`: -0.046% (inactive).

With `CC(C)CCNC(=O)[C@H](Cc1ccccc1)N1Cc2ccccc2C1=O`, the activation is 0.131% (inactive). Same read-out and setting: next, `C[C@H]1CN([C@@H](C)CO)C(=O)c2cc(NC(=O)CCCN(C)C)ccc2O[C@H]1CN(C)Cc1ccc(C(F)(F)F)cc1`: -0.127% (inactive); `C[C@H](CO)N1C[C@H](C)[C@@H](CN(C)S(C)(=O)=O)Oc2ccc(NC(=O)C3CCCCC3)cc2CC1=O`: 0.112% (inactive); `CNC[C@H]1Oc2ccc(NS(=O)(=O)c3ccc(OC)cc3)cc2CC(=O)N([C@@H](C)CO)C[C@@H]1C`: -0.213% (inactive). With `O=C(O)CCC(=O)NCC(=O)c1ccc(F)cc1`, the activation is -0.239% (inactive). Still for that read-out and setting: the result for `O=C(Nc1cccc(C(F)(F)F)c1)c1cc[n+]([O-])cc1` reads 0.066% (inactive); that for `C[C@@H]1CN([C@H](C)CO)C(=O)c2cc(C3=CCCC3)cnc2O[C@@H]1CN(C)C(=O)Nc1ccccc1`, 0.119% (inactive).

As for `C[C@H]1CN([C@@H](C)CO)C(=O)Cc2cc(NC(=O)Nc3ccccc3)ccc2O[C@H]1CN(C)C`, the activation was 0.067% (inactive). Same read-out and setting: next, `COc1ccc(CCNS(=O)(=O)c2ccc3c(c2)NC(=O)CS3)cc1OC`: -0.024% (inactive).

Take `C/C=C/c1ccc2c(c1)O[C@H](CN(C)C(=O)CC)[C@@H](C)CN([C@H](C)CO)S2(=O)=O`: the activation is 25.5% (inactive). The same measure, in the same setting: the result for `C[C@@H]1CN([C@H](C)CO)C(=O)c2cc(NC(=O)Nc3ccc4c(c3)OCO4)ccc2O[C@H]1CN(C)S(=O)(=O)c1ccc(F)cc1` reads -0.11% (inactive); that for `COc1ccc(S(=O)(=O)Nc2ccc3c(c2)C(=O)N([C@H](C)CO)C[C@H](C)[C@@H](CN(C)C(=O)Nc2cccc4ccccc24)O3)cc1`, 0.023% (inactive); that for `Cc1ccc(S(=O)(=O)NC(Cc2ccccc2)C(=O)O)cc1C` (centres undefined), -0.133% (inactive). The same measure, in the same setting: next, `C[C@H]1CN([C@@H](C)CO)C(=O)c2cccc(NC(=O)c3ccc(-c4nccs4)cc3)c2O[C@@H]1CN(C)Cc1ccc(Cl)c(Cl)c1`: 4.07% (inactive); `O=C(CN(C(=O)c1csnn1)c1ccc2c(c1)OCCO2)NCc1ccc(F)cc1`: -0.09% (inactive); `C[C@@H]1CN([C@@H](C)CO)C(=O)c2cc(NC(=O)Cc3ccccc3)ccc2O[C@@H]1CN(C)Cc1ccc(Cl)c(Cl)c1`: 0.002% (inactive).

For `COC(=O)CCCn1cc(CN2CC(N3CCN(Cc4ccccc4F)CC3)CS2(=O)=O)nn1` (centres undefined), the activation was -0.246% (inactive).

Staying with this assay, now noted: HUVEC E-selectin immunostaining, at 21 µM (top of the series), percent of TNF-alpha response over vehicle.
As to `Cc1noc(C)c1NC(=O)Nc1ccc2c(c1)CC(=O)N([C@H](C)CO)C[C@H](C)[C@H](CN(C)S(=O)(=O)c1ccccc1)O2`, the activation is -0.132% (inactive). On the same count and under the same terms, next, `CC(C)NC(=O)Nc1ccc2c(c1)CC(=O)N([C@H](C)CO)C[C@H](C)[C@@H](CN(C)Cc1ccc(C(=O)O)cc1)O2`: -0.068% (inactive); `CC(C)NC(=O)Nc1ccc2c(c1)CC(=O)N([C@H](C)CO)C[C@@H](C)[C@@H](CN(C)Cc1ccc3c(c1)OCO3)O2`: -0.173% (inactive); `C[C@@H]1CN([C@H](C)CO)C(=O)Cc2cc(NC(=O)Nc3ccc(F)cc3)ccc2O[C@@H]1CN(C)Cc1ccncc1`: -0.095% (inactive). For `C[C@@H]1CN([C@H](C)CO)C(=O)c2cc(NC(=O)c3ccncc3)ccc2O[C@@H]1CN(C)C(=O)Nc1ccc2c(c1)OCO2`, the activation is 0.64% (inactive).

With `C[C@@H]1CN([C@H](C)CO)C(=O)Cc2cc(NC(=O)Cc3cn(C)c4ccccc34)ccc2O[C@H]1CN(C)Cc1ccc(C(F)(F)F)cc1`, the activation is 14% (inactive). Same read-out and setting: the result for `COc1ccc(NC(=O)N(C)C[C@H]2Oc3ccc(NC(=O)Cc4cn(C)c5ccccc45)cc3C(=O)N([C@H](C)CO)C[C@@H]2C)cc1` reads 7.04% (inactive).

(Values after PubChem BioAssay AID977605 (Broad Institute, 2014).)
